Reference: patent US6309842A, “Use of modified tethers in screening compound libraries” (Glaxo Wellcome Inc., priority 1997, dated 2001)

Target: T1, STE2 receptor (Saccharomyces cerevisiae, UniProt D6VTK4)
T1 construct: expressed in transfected cells; host or cells: yeast strain ARY84 (Δste2::ura3, plasmid pRS416(URA3)-STE2)
T1 sequence (D6VTK4 1-431): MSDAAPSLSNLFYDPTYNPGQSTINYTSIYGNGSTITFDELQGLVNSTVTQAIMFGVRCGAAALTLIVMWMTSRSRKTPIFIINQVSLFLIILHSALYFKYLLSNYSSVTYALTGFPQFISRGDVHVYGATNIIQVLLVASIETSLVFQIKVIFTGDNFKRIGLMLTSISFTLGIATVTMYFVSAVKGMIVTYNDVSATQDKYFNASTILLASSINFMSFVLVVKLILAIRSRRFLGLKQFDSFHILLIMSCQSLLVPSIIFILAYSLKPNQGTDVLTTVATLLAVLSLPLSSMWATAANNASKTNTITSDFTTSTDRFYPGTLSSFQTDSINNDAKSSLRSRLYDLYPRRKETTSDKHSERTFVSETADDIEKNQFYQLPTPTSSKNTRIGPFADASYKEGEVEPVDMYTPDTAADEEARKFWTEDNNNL
Test: Bead tether modification by yeast acid phosphatase, FACScan of 3E7-coated beads
Format: cell-based
Settings: 500 nM alpha factor, beads exposed 18 hr, 200 nM AF12402
Excerpt: This system employs yeast ARI 84 reporter cells bearing an STE2 receptor and containing a reporter construct in which a pho3 gene is linked to a FUS1 promoter. Acid phosphatase expressed by the yeast is used to dephosphorylate the substrate phospho-YGGFL-linker-biotin. (SEQ ID NO:25) As a result of dephosphorylation, the substrate can bind to a 3E7 antibody tether. The biotinylated portion of modified tethers is stained using a PE- or alkaline-phosphatase-conjugated streptavidin. Complexes with stained tethers are sorted by FACS™.
ARY84 culture from a fresh, 4-10 day old patch was grown in 3 ml SC minimal media minus Trp, Ura, Leu, pH adjusted to 6.15 using MES buffer 200 mM final at @30C overnight in a tube rotator. At A600, the growing culture was diluted to 0.1 A600 in duplicate in pH 6.15 SC media minus Trp, Ura, Leu. One diluted culture was induced by addition of alpha factor to 500 nM final concentration. 0.1 ml of the appropriate diluted induced or uninduced culture was added to wells of a BSA-blocked 96-well microtitre plate. […]
A desired amount of monobeads (at about 1×10^7 beads/ml) was washed once in 0.5 ml methanol, and twice in 1 ml PBS, pH 7.5. […] The density of beads was determined and about 1×10^5 beads were added to each well (after washing with PBS 0.1% BSA to remove the azide). […]
Staining was analyzed by running the beads through a Becton Dickinson FACScan™ machine. […]

α-factor
FACScan shift of beads, induced vs not induced yeast: 10 fold
